Measurements from paper PMC7315563, “Bioactive fluorenes. Part III: 2,7-dichloro-9H-fluorene-based thiazolidinone and azetidinone analogues as anticancer and antimicrobial against multidrug resistant strains agents” (BMC Chemistry, 2020).
Values after ≈ are worked out from the molar mass of the structure shown.

Assays:
[1] = test system: A549 human lung cancer cells; experiment: cell viability assay (MTT); format: cell-based; settings: 24 h; for viability at 1 µg/mL: read-out: Validity (%) for sample concentrations (µg/mL) 1; for viability at 10 µg/mL: read-out: Validity (%) for sample concentrations (µg/mL) 10; for viability at 31.25 µg/mL: read-out: Validity (%) for sample concentrations (µg/mL) 31.25; for viability at 62.5 µg/mL: 62.50 µg/mL, read-out: Validity (%) for sample concentrations (µg/mL) 62.50; for viability at 125 µg/mL: read-out: Validity (%) for sample concentrations (µg/mL) 125; for viability at 250 µg/mL: read-out: Validity (%) for sample concentrations (µg/mL) 250; for viability at 500 µg/mL: read-out: Validity (%) for sample concentrations (µg/mL) 500; for viability at 1000 µg/mL: read-out: Validity (%) for sample concentrations (µg/mL) 1000
Protocol: WI-38 normal lung fibroblast cells, A549 lung cancer cells, and MDA-MB-231 breast cancer cells were obtained from VACSERA—Cell Culture Unit, Cairo, Egypt. The cell lines were originally obtained from the American Tissue Culture Collection (ATCC). WI-38, A549, and MDA-MB-231 cell lines were cultured in RPMI-1640 medium supplemented with 10% inactivate fetal bovine serum (FBS) and 1% penicillin/streptomycin were bought (Gibco, Invitrogen, CA). WI-38, A549, and MDA-MB-231 cells were seeded into 96-well plates (at a density of 5000 cells/well). […] Cell viability was then assessed using the MTT assay (Sigma Aldrich, St. Louis, MO, USA), and the absorbance was read at 570 nm using an ELISA microplate reader (Molecular Devices, Downingtown, PA, USA).

[2] = test system: Staphylococcus aureus (S. aureus), multidrug resistant clinical isolate; experiment: agar well diffusion assay; format: cell-based; settings: Staphylococcus aureus; S. aureus; 500 µg/mL of tested compound; 24 h
Source text: All microbial strains were kindly provided from the department of Medical Microbiology and Immunology faculty of Medicine Assiut University, these clinical isolates were obtained from clinical cases of infections admitted to Assiut University hospital as urinary tract infections, corneal ulcers, bacterial and fungal pneumonia, otomycosis, oral thrush and wound infections.
The clinical isolates used were multidrug resistant strains, they were resistant to β lactam (penicillin, amoxacillin, oxacillin), cephalosporins (cefazolin, cefaclor and cefepime) and macrolides (erythromycin and clarithromycin), they included Gram positive bacteria as Staphylococcus aureus (S. aureus), Methicillin-resistant Staphylococcus aureus (MRSA), Streptococcus pneumoniae (S. pneumoniae), and Gram negative bacteria as Escherichia coli (E. coli), Klebsiella pneumoniae (K. pneumoniae), Pseudomonas aeruginosa (P. aeruginosa), and Acinetobacter baumannii (A. baumannii). The fungal strains that were tested are Aspergillus flavus (A. flavus), A. niger (A. niger) and Candida albicans (C. albicans).
The antimicrobial activity of the fluorene derivatives was initially evaluated by agar well diffusion assay. Mueller–Hinton agar (CM0337) was poured into Petri dishes at 50–60 °C and left to solidify for 15 min. Subsequently, overnight microbial suspensions of tested strains was adjusted to turbidity of 0.5 McFarland Standard, which equals to 1–2 × 10^8 CFU/mL for bacteria and 1–5 × 10^6 for fungi. The microbial inoculums were then diluted in 1:100 ratio in case of bacteria and 1:10 ratio in case of fungi in order to get 1–5 × 10^5 CFU/mL. a sterile cotton swab was dipped into the adjusted microbial suspension and the Mueller–Hinton agar plates were inoculated by evenly streaking cotton swab over the agar medium. Then wells with a diameter of 0.5 cm were cut in the medium with a sterile cork borer. Stock solutions of the flourene derivatives were diluted in DMSO 1% to get 500 μg/mL concentrations. The tested flourene derivatives and controls (50 μL) were dispensed into the wells. The plates were incubated for 24 h at 37 °C for bacteria and C. albicans while at 25 °C for A. falvus and A. niger. The diameters of zones of inhibition (ZOI) around the wells were measured in mm. Following control agents were used: positive control agents—vancomycin (50 μg/mL) for Gram positive bacteria, gentamicin (10 μg/mL) (for Gram negative bacteria) and fluconazole 25 μg/mL for fungi and negative control agent is 1% DMSO.

[3] = test system: WI-38 human normal fibroblast cells; experiment: cell viability assay (MTT); format: cell-based; settings: 24 h; for viability at 31.25 µg/mL: read-out: Validity (%) for sample concentrations (µg/mL) 31.25; for viability at 62.5 µg/mL: 62.50 µg/mL, read-out: Validity (%) for sample concentrations (µg/mL) 62.50; for viability at 125 µg/mL: read-out: Validity (%) for sample concentrations (µg/mL) 125; for viability at 250 µg/mL: read-out: Validity (%) for sample concentrations (µg/mL) 250; for viability at 500 µg/mL: read-out: Validity (%) for sample concentrations (µg/mL) 500
Protocol: (§1) WI-38 normal lung fibroblast cells, A549 lung cancer cells, and MDA-MB-231 breast cancer cells were obtained from VACSERA—Cell Culture Unit, Cairo, Egypt. The cell lines were originally obtained from the American Tissue Culture Collection (ATCC). WI-38, A549, and MDA-MB-231 cell lines were cultured in RPMI-1640 medium supplemented with 10% inactivate fetal bovine serum (FBS) and 1% penicillin/streptomycin were bought (Gibco, Invitrogen, CA). WI-38, A549, and MDA-MB-231 cells were seeded into 96-well plates (at a density of 5000 cells/well). On the following day, cells were treated with different concentrations (0, 1, 10, 31.25, 62.5, 125, 250, 500 µg/mL) of 16 fluorene derivatives in fresh medium and incubated for another 24 h. Cell viability was then assessed using the MTT assay (Sigma Aldrich, St. Louis, MO, USA), and the absorbance was read at 570 nm using an ELISA microplate reader (Molecular Devices, Downingtown, PA, USA).

[4] = test system: MDA-MB-231 human breast cancer cells; experiment: cell viability assay (MTT); format: cell-based; settings: 24 h; for viability at 1 µg/mL: read-out: Validity (%) for sample concentrations (µg/mL) 1; for viability at 10 µg/mL: read-out: Validity (%) for sample concentrations (µg/mL) 10; for viability at 31.25 µg/mL: read-out: Validity (%) for sample concentrations (µg/mL) 31.25; for viability at 62.5 µg/mL: read-out: Validity (%) for sample concentrations (µg/mL) 62.5; for viability at 125 µg/mL: read-out: Validity (%) for sample concentrations (µg/mL) 125; for viability at 250 µg/mL: read-out: Validity (%) for sample concentrations (µg/mL) 250; for viability at 500 µg/mL: read-out: Validity (%) for sample concentrations (µg/mL) 500
Protocol: as §1

SMILES | viability at 1 µg/mL [1] [%] | viability at 10 µg/mL [1] [%] | viability at 31.25 µg/mL [1] [%] | viability at 62.5 µg/mL [1] [%] | viability at 125 µg/mL [1] [%] | viability at 250 µg/mL [1] [%] | viability at 500 µg/mL [1] [%] | viability at 1000 µg/mL [1] [%] | IC50 [1] [µg/mL] | melting point [°C] | zone of inhibition at 500 µg/mL [2] [mm] | viability at 31.25 µg/mL [3] [%] | viability at 62.5 µg/mL [3] [%] | viability at 125 µg/mL [3] [%] | viability at 250 µg/mL [3] [%] | viability at 500 µg/mL [3] [%] | IC50 [3] [µg/mL] | viability at 1 µg/mL [4] [%] | viability at 10 µg/mL [4] [%] | viability at 31.25 µg/mL [4] [%] | further results
O=C1CSC(c2ccc(Cl)cc2)N1c1nc(-c2cc(Cl)cc3c2-c2ccc(Cl)cc2C3)cs1 (stereo not drawn) [5c, 2-(4-Chlorophenyl)-3-(4-(2,7-dichloro-9H-fluoren-4-yl)thiazol-2-yl)thiazolidin-4-one] | 91.2 | 90.1 | 89.2 | 80.9 | 62.6 | 59.8 | 46.3 | 14.9 | 415 (≈ 783 µM) | 83 to 85 | 3 | 89.7 | 87.3 | 83.8 | 77.5 | 71.3 | > 500 | 97.1 | 95.7 | 95.8 | viability at 62.5 µg/mL [4]: 92.1%; viability at 125 µg/mL [4]: 86.3%; viability at 250 µg/mL [4]: 84.5%; viability at 500 µg/mL [4]: 83%; IC50 [4]: > 500 µg/mL
O=C1CSC(c2ccc(Br)cc2)N1c1nc(-c2cc(Cl)cc3c2-c2ccc(Cl)cc2C3)cs1 (stereo not drawn) [5d, 2-(4-Bromophenyl)-3-(4-(2,7-dichloro-9H-fluoren-4-yl)thiazol-2-yl)thiazolidin-4-one] | 98.4 | 91.7 | 88.9 | 82.2 | 78.8 | 73 | 58.6 | 18.1 | 574 (≈ 999 µM) | 155 to 157 | 4 | 94.9 | 88.5 | 86.1 | 50.7 | 44.2 | 268 (≈ 467 µM) | 96.8 | 94.4 | 93.7 | viability at 62.5 µg/mL [4]: 92.4%; viability at 125 µg/mL [4]: 88.4%; viability at 250 µg/mL [4]: 87.2%; viability at 500 µg/mL [4]: 85.7%; IC50 [4]: > 500 µg/mL
O=C1CSC(C=Cc2ccccc2)N1c1nc(-c2cc(Cl)cc3c2-c2ccc(Cl)cc2C3)cs1 (stereo not drawn) [5i, 3-(4-(2,7-Dichloro-9H-fluoren-4-yl)thiazol-2-yl)-2-styrylthiazolidin-4-one] | 93.3 | 92.2 | 91.4 | 85.6 | 81.3 | 76.9 | 63.2 | 49.3 | 896 (≈ 1720 µM) | 114 to 116 | 10 | 88.2 | 86.9 | 69.1 | 63.1 | 59.3 | > 500 | 96 | 83.8 | 61 | viability at 62.5 µg/mL [4]: 56.2%; viability at 125 µg/mL [4]: 52.2%; viability at 250 µg/mL [4]: 50.5%; viability at 500 µg/mL [4]: 46.1%; IC50 [4]: 334 µg/mL (≈ 640 µM)
